From patent US3989598A (priority 1962, dated 1976)
Counter-ions that a name gives are not always drawn.

Experiment: solubility
Assay type: physicochemical
Details: listed as hydrochloride

In the case of `COc1cccc2c1C(=O)c1c(O)c3c(c(O)c1C2=O)C[C@@](O)(C(C)=O)C[C@@H]3O[C@H]1C[C@H](N)[C@H](O)[C@H](C)O1` [13057 RP daunorubicin hydrochloride], the solubility in chloroform (chloroform) is reported as “slightly soluble” and the solubility in water (water) is reported as “soluble”.
